Source: patent publication US20060135765A1, “Antineoplastic ether lipid compounds” (priority 2003, published 2006)
“And” between values parts separate entries of the source, which are not always exact repeats. Identical values can stand only once. Like-named read-outs stand apart in the source and are kept apart here.

Legend:
Washed Human RBCs = test: Hemolysis assay with washed human red blood cells; assay type: cell-based
Procedure: Venous blood was collected in 10 mL Vacutainer tubes containing EDTA using a 21G needle or larger. […] The blood was transferred from 1 EDTA tube to a 50 mL conical tissue culture tube and the volume was brought up to 50 mL with PBS.
The blood was centrifuged for 10 minutes at 1500 RPM. The supernatant was removed and the blood was resuspended up to 50 mL with PBS. Next the blood was centrifuged for 10 minutes at 1500 RPM.
The supernatant was removed, and 2.0 mL of packed red blood cells was carefully transferred, using positive displacement pipet, into a fresh conical tissue culture tube. Next, 48 mL PBS was added to achieve a 4% washed RBC solution.
Next, 25, 50, 100 and 200 uM stock solutions of test sample in phosphate buffered saline (PBS) as follows:
Next, 0.5 mL of 4% washed RBC was added to 0.5 mL test sample dilutions (in duplicate). The final concentration of test sample was 50% of working stock solution.
The samples were capped or sealed with Parafilm and the samples were gently mixed. The blood was incubated at 37° C. in gentle rotating water bath for 30 minutes. The samples were centrifuged for 10 minutes at 1500 RPM. Next, 200 uL of supernatant was transferred to a cuvette and 1 mL deionized water was added. Absorbance was measured at 550 nm vs. a water blank. Next, H10 and H50 were determined by graphing Absorbance vs. Test Sample Concentration.

Whole Human Blood = test: Hemolysis assay with whole human blood; assay type: cell-based
Procedure: Venous blood was collected in 10 mL Vacutainer tubes containing EDTA using a 21G needle or larger.
stock solutions of 20 mM test sample in phosphate buffered saline (PBS) were prepared as follows:
Then 270 uL of whole blood was aliquotted in duplicate mini test tubes using positive displacement pipet. Next, 30 uL of each working stock solution, in duplicate, was added to the whole blood. Next, 30 uL of PBS was added for background control. The samples were capped or sealed with Parafilm and gently mixed. The blood was incubated at 37° C. in gentle rotating water bath for 30 minutes. Final concentration of test sample was 10% of working stock solution.
Total hemolysis samples of 1% and 10% whole blood samples in deionized water were prepared as follows: 1:100=10 uL whole blood+990 uL deionized water 1:10=100 uL whole blood+900 uL deionized water
The samples were freeze thawed 3× in liquid nitrogen then water bath. The samples were then centrifuged 10 minutes at 1500 RPM. Next, 100 uL of supernatant was transferred to a cuvette and […] deionized water was added. The absorbance was read at 550 nm vs. water blank.
H10 and H50 were calculated by graphing Percent Total Hemolysis vs. Test Sample Concentration. The Percent Total Hemolysis=(average o.d of test sample)/(average o.d. of total hemolysis sample)×100

HT29 = test: In vitro growth inhibition (SRB), HT29; assay type: cell-based, human; conditions: HT29 tumor cell line; 3 days
From the text: (§1) III. In Vitro Growth Inhibition (GI50) A. Cell line maintenance The following cell lines were selected from the cell bank for screening and GI50 studies: MCF-7: human breast tumor, MCF-7/ADR: MCF-7 adriamycin resistant subline, HT-29: human colon carcinoma, A-549: human non-small cell lung cancer, NIH-3T3: mouse Swiss embryo fibroblast and WI-38: human lung fibroblast, SKMEL-28: human melanoma, Lewis Lung: mouse lung carcinoma, DU-145: prostate carcinoma, B16F10: mouse melanoma, L1210: murine lymphocytic leukemia, P-388: murine leukemia, U-937: human histolytic lymphoma. […]
(§2) The test compounds were made in-house and the compounds were dissolved PBS or saline at a stock concentration of approximately 20 mM, which is 400 times the desired final maximum test concentration. […] After 3 days of incubation, cell growth was determined.
(§3) The SRB assay was performed as described by Monks, A., Scudiero, D., Skehan, P., Shoemaker, R., Paull, K., Vistica, D., Hose, C., Langley, J., Cronise, P., and Vaigro-Wolff, A. Feasibility of a high-flux anticancer drug screen using a diverse panel of cultured human tumor cell lines. […] Bound SRB was solubilized with Tris buffer (10 mM), and the ODs were read using an automated plate reader (Bio-Rad, Model 3550-UV) at 490 nm. Background values were subtracted from the test data, and the data was calculated as a % of control. […]

A549 = test: In vitro growth inhibition (SRB), A549; assay type: cell-based, human; conditions: A549 tumor cell line; 3 days
From the text: as §1, §2, §3

MCF7 = test: In vitro growth inhibition (SRB), MCF7; assay type: cell-based, human; conditions: MCF7 tumor cell line; 3 days
From the text: as §1, §2, §3

MCF7/ADR = test: In vitro growth inhibition (SRB), MCF7/ADR; assay type: cell-based, human; conditions: MCF7/ADR tumor cell line; 3 days
From the text: as §1, §2, §3

NIH-3T3 = test: In vitro growth inhibition (SRB), NIH-3T3 normal fibroblasts; assay type: cell-based, mouse; conditions: NIH-3T3 normal cell line; 3 days
From the text: as §1, §2, §3

WI38 = test: In vitro growth inhibition (SRB), WI-38 normal fibroblasts; assay type: cell-based, human; conditions: WI38 normal cell line; 3 days
From the text: as §1, with “lymphoma. Except HT-29, WI-38, NIH-3T3 and Lewis Lung which were obtained from the American Type Culture Collection (Rockville, Md.) all the other cell lines were obtained from National Cancer Institute—Frederick Research Facility (Frederick, Md.).” for “lymphoma.”
as §2
The SRB assay was performed as described by Monks, A., Scudiero, D., Skehan, P., Shoemaker, R., Paull, K., Vistica, D., Hose, C., Langley, J., Cronise, P., and Vaigro-Wolff, A. Feasibility of a high-flux anticancer drug screen using a diverse panel of cultured human tumor cell lines. […] Bound SRB was solubilized with Tris buffer (10 mM), and the ODs were read using an automated plate reader (Bio-Rad, Model 3550-UV) at 490 nm. Background values were subtracted from the test data, and the data was calculated as a % of control. […] Percentage growth was calculated as described by Peters, A. C, Ahmad, L, Janoff, A. S., Pushkareva, M. Y., and Mayhew, E. Growth Inhibitory efects of liposome-associated 1-o-octadecyl-2-o-metlryl-sn-glycero-3-phosphocholine. […]

[1] = test system: DEVDase activity in Jurkat T Cells; test: DEVDase activity in Jurkat T cells; assay type: cell-based
Procedure: Suspension cells were seeded at density 3.2×10^5 cells per mL in RPMI-1640 medium (Bio-Whittaker) supplemented with 10% heat inactivated FBS (Bio-Whittaker). Cells were pre-incubated overnight prior to treatment with the ether lipid compounds of the invention. At treatment time cell density was 5×10^5 cells per mL. Cells were incubated with the ether lipid compounds of the invention for various periods of time, usually 6 hours. Cells were collected, washed with 1×DPBS and resuspended in 110 μl of Buffer A (10 mM HEPES-KOH, pH 7.4, 2 mM EDTA, 0.1% CHAPS, 5 mM DTT, 1:100 dilution of protease inhibitors cocktail (SigmaYDTT and protease inhibitors should be added just before use). After 10 min incubation on ice in order to lyse cells, samples were frozen on dry ice/ethanol and kept at −20° C. until analysis. […] At the time of analysis of DEVDase activity frozen pellets were kept on ice until thawed and after vigorous vortexing samples were centrifuged at 14,000 rpm for 6 min. Supernatant was transferred into another tube and 2 μl, in triplicates, were used for protein measurement using Bradford reagent (Bio-Rad).
Measurement of DEVDase activity was carried out in 100 μl volume, where 10 μg of protein was delivered in 50 μl of Buffer A and 40 μM of substrate Ac-DEVD-AMC was also delivered in 50 μl of Buffer A. All measurements were done in triplicates. Reaction was carried out for 1 hour and generation of fluorescent product of reaction (aminomethylcoumarin) was measured by reading fluorescence at 1em 460 nm (1ex 360 nm). Changes in DEVDase activity were calculated after subtraction of background fluorescence of substrate incubated without proteins, and were expressed as percent of control (DEVDase activity in untreated cells). Average of DEVDase activity, calculated from few independent experiments, was used to calculate percent of L-ether lipid-induced DEVDase activity.

[2] = test system: platelets in dog whole blood; test: Platelet aggregation in dog whole blood (whole blood aggregometer)
Procedure: Briefly, whole citrated blood is diluted 1:2 with sterile saline and placed in a warm chamber with a mini stir bar. An electronic probe, measuring electrical resistance, is inserted in the sample. The aggregometer is calibrated and the baseline is observed to detect any spontaneous aggregation. The test sample is added and allowed to run for at least 6 minutes. If the sample is an agonist the platelets will start to aggregate and stick to the electronic probe causing resistance across the electrodes to increase. This resistance, in ohms, is measured 6 minutes post addition of sample. The test samples are run at 25, 100, 200, 400 and 800 uM and compared to 100 uM L-ET-18-OCH3.
Collection of Blood Sample for in vitro Platelet Aggregation Testing: Venous blood is collected in 4.5 mL Vacutainer tubes containing 0.129 M sodium citrate using a 21G needle or larger. Blood is immediately mixed by gentle inversion 15-20 times and kept at room temperature. Dilution ratio is 1 to 9 (3.8% citrate solution:blood). One (2.0 mL) Vacutainer tube containing EDTA is also collected for platelet counts. Complete blood counts (CBC) are measured on the CDC Technologies Hemavet 1500 to ensure that the test subject's platelets are within normal range. Any vials of hemolytic blood or blood containing any clots should be discarded. Platelet aggregation testing must be completed within 3 hours of blood collection. After this time the ability of platelets to aggregate decreases.
Cloudy solutions were warmed to 50° C. to dissolve and particles. Dilutions were prepared in PBS or saline at 40× concentration. (25 uL test sample are added to 1000 uL diluted blood (1:40)).
Procedure for in vitro Platelet Aggregation Test using CH NO-LOG Aggregometer Model 560-CA: The following protocol was used:

K-562 = test: NCI screen, K-562; assay type: cell-based, human; conditions: leukemia panel
Procedure: (§4) Candidates deemed suitable for in vivo testing were then synthesized in large scale quantities and some of this material was sent to the NCI's Developmental Therapeutics Program for a battery of growth inhibitory studies against various human tumor cell lines (60 cell lines, 9 different panels). The remainder of the material was used to assess in vivo efficacy using murine tumor models. Additionally, studies were conducted on the lead candidates to discern mechanism of action with particular emphasis on these agents apoptotic ability as measured by caspase 3 activity. The details (materials and methods) for these various assays are described further in the following discussion.
(§5) Ten compounds were also sent to NCT's Drug Discovery Program for screening against numerous human tumor cell lines (9 panels total: renal ovarian, colon, CNS, non-small cell lung, leukemia, breast, melanoma, and prostate). The data are shown in FIGS. 2a-i which also include data regarding D- and L-ET-18-OCH3 (listed as L-EL and D-EL in the figures).

RPMI-8226 = test: NCI screen, RPMI-8226; assay type: cell-based, human; conditions: leukemia panel
Procedure: as §4, §5

[3] = test system: human umbilical vein endothelial cell (HUVEC) line; test: In vitro growth inhibition, HUVEC; assay type: cell-based
[4] = concentration producing 10% hemolysis
[5] = concentration producing 50% hemolysis

CCCCCCCCCCCCCCCCCCOCC(CCP(=O)([O-])OCCC[N+](C)(C)C)OC [2(S), 3′-Trimethylaminopropyl-1-O-octadecyl-2-O-methylbutane-4-phospbonate]
H10 (Washed Human RBCs; [4]): 14 µM and 8 µM | H50 (Washed Human RBCs; [5]): 21 µM and 11 µM | H10 (Whole Human Blood; [4]): 400 µM | H50 (Whole Human Blood; [5]): >2000 µM | GI50 (HT29): 4.8 µM | GI50 (A549): 7.2 µM | GI50 (MCF7): 34.8 µM | GI50 (MCF7/ADR): > 40 µM | GI50 (NIH-3T3): 33.5 µM and 33.6 µM | GI50 (WI38): < 4 µM | % L-ET18OCH3 (DEVDase, 6 hrs) ([1]; [ether lipid] 10 μM): 57.2 ± 8.4 % L-ET18OCH3 | % L-ET18OCH3 (DEVDase, 6 hrs) ([1]; [ether lipid] 20 μM): 70.6 ± 10.8 % L-ET18OCH3 | % L-ET18OCH3 (DEVDase, 6 hrs) ([1]; [ether lipid] 30 μM): 76.8 ± 11.1 % L-ET18OCH3 | platelet aggregation response (in words) [2]: no aggregation was noted | Relative Platelet Aggregation (Ohms) ([2]; 25 μM): 0 Ohms | Relative Platelet Aggregation (Ohms) ([2]; 100 μM): 0 Ohms | Relative Platelet Aggregation (Ohms) ([2]; 200 μM): 0 Ohms | Relative Platelet Aggregation (Ohms) ([2]; 400 μM): 0 Ohms | Relative Platelet Aggregation (Ohms) ([2]; 800 μM): 0 Ohms | platelet aggregation response (in words) ([2]; listed as 2): did not evoke a platelet aggregation response

CCCCCCCCCCCCCCCCCCOCC(COP(=O)([O-])OCC[N+](C)(C)C)OC [D-ET18OCH3, 1-O-octadecyl-2-O-methyl-glycerophosphocholine]
GI50 (WI38): 10 to 13 µM | % L-ET18OCH3 (DEVDase, 6 hrs) ([1]; [ether lipid] 10 μM): 79.3 ± 9.7 % L-ET18OCH3 | % L-ET18OCH3 (DEVDase, 6 hrs) ([1]; [ether lipid] 20 μM): 89.2 ± 12.2 % L-ET18OCH3 | % L-ET18OCH3 (DEVDase, 6 hrs) ([1]; [ether lipid] 30 μM): 92.1 ± 11.8 % L-ET18OCH3 | activity against K-562 (in words) (K-562): extremely poor activity | activity against RPMI-8226 (in words) (RPMI-8226): extremely poor activity

CCCCCCCCCCCCCCCCCCOCC(COP(=O)([O-])OCC[N+](C)(C)C)OC [L-ET18OCH3, 1-O-octadecyl-2-O-methyl-glycerophosphocholine]
GI50 (WI38): 10 to 12 µM | GI50 [3]: 1.2 µM | % L-ET18OCH3 (DEVDase, 6 hrs) ([1]; [ether lipid] 10 μM): 100 ± 8.8 % L-ET18OCH3 | % L-ET18OCH3 (DEVDase, 6 hrs) ([1]; [ether lipid] 20 μM): 100 ± 10.4 % L-ET18OCH3 | % L-ET18OCH3 (DEVDase, 6 hrs) ([1]; [ether lipid] 30 μM): 100 ± 9.3 % L-ET18OCH3
